{
  "source": "patent US20020168389A1",
  "about": "“Stable skin conditioning compositions containing retinoid boosters” (priority 2000, published 2002)",
  "key": {"[1]": {"system": "TGase I", "assay": "Transglutaminase (TGase I ELISA) assay in cultured keratinocytes with retinol", "format": "cell-based", "settings": "Keratinocyte, read-out: Overall TG (IC 50)"}, "[2]": {"system": "Retinal Reductase", "assay": "Assay for Retinal Reductase Activity, rat liver microsomes (to identify B3)", "format": "biochemical", "settings": "test compound final 100 μM", "method": "The resulting homogenate was successively centrifuged for 30 min. at 10,000 g, 30 min. at 20,000 g, and 15 min. at 30,000 g, and the resulting supernatant was ultracentrifuged for 80 min. at 105,000 g. […] Protein concentrations were determined as described above. […] All stock solution were prepared as above with the following substitutions: 10 mM all trans Retinaldehyde (Sigma R2500) in DMSO—instead of retinol. 200 mM, Nicotinamide adenine dinucleotide phosphate, reduced form, tetrasodium salt (NADPH) (Sigma N7505) in sterile water—instead of NADP. In a two-dram glass vial with screw cap, add the following in order: […] 25 μl diluted Microsomes (final=100 μg)—use boiled Microsomes for controls and regular Microsomes for test samples. […] 3 μl of 10 mM retinaldehyde (final=75 μM) Follow the same incubation and extraction procedure as detailed above. […] Aliquots of 60 μL were injected immediately and analyzed for retinoid content. The chromatography instrumentation consisted of a Waters 600 gradient controller/pump, a Waters 996 Photodiode Array detector and a Waters 474 Scanning Fluorescence detector. Two HPLC protocols were used for retinoid analysis. […] The eluate was monitored for absorbance at 325 nm and fluorescence at 325 ex/480 em. […] B. Barua, “Analysis of Water-Soluble Compounds: Glucuronides”, Methods Enzymol. 189, 136-145 (1990). […] These protocols were selected based on their ability to clearly resolve pertinent retinoid acids, alcohols, aldehydes, and/or esters for each assay and relative quickness of separation. Identification of individual retinoids by HPLC was based on an exact match of the retention time of unknown peaks with that of available authentic retinoid standards and UV spectra analysis (300-400 nm) of unknown peaks against available authentic retinoids."}, "[3]": {"system": "Retinol Dehydrogenase", "assay": "Assay for Retinol Dehydrogenase Activity, rat liver microsomes (to identify B2)", "format": "biochemical", "settings": "ranking among B2 compounds", "method": "The resulting homogenate was successively centrifuged for 30 min. at 10,000 g, 30 min. at 20,000 g, and 15 min. at 30,000 g, and the resulting supernatant was ultracentrifuged for 80 min. at 105,000 g. […] Protein concentrations were determined as described above.\n2.4 Assay for Retinol Dehydrogenase Activity (To identify B2)\nThe following stock solutions were prepared:\n50 mM KH2PO4, pH 7.4 buffer, sterile filtered.\n10 mM all trans Retinol (Sigma R7632) in DMSO.\n200 mM Nicotinamide adenine dinucleotide phosphate, sodium salt (NADP) (Sigma N0505) in sterile water.\n40 mM test compound in appropriate solvent (water, buffer, ethanol, chloroform or DMSO).\n1:10 dilution of rat liver Microsomes in 50 mM KH2PO4, pH 7.4 buffer (4 ug/ul).\nIn a two-dram glass vial with screw cap, add the following in order:\nBuffer to give a final volume of 400 μl\n25 μl diluted Microsomes (final=100 μg)−use boiled Microsomes for controls and regular Microsomes for test samples.\n4 μl of 200 mM NADP (final=2 mM)\n1 μl of 40 mM test compound (final=100 μM)\n8 μl of 10 mM retinol (final=200 μM) […]\nAliquots of 60 μL were injected immediately and analyzed for retinoid content.\nThe chromatography instrumentation consisted of a Waters 600 gradient controller/pump, a Waters 996 Photodiode Array detector and a Waters 474 Scanning Fluorescence detector. […] The eluate was monitored for absorbance at 325 nm and fluorescence at 325 ex/480 em. […]"}},
  "data": [
    {"compound": "Oc1cccc2cccnc12", "note": "[Hydroxyquinoline, Hydroxyquinoline (Carbostyril)]", "values": [
      {"measurement": "IC50", "setting": "[1]", "value": 364, "unit": "µM"}
    ]},
    {"compound": "CCCCCCCCCCCCCC(=O)O", "note": "[Myristic Acid]", "values": [
      {"measurement": "% lnhibition Retinal Reductase", "setting": "[2]", "value": 26, "unit": "%"}
    ]},
    {"compound": "COc1cc(C=O)ccc1O", "note": "[Vanillin]", "values": [
      {"measurement": "% lnhibition Retinal Reductase", "setting": "[2]", "value": 6, "unit": "%"}
    ]},
    {"compound": "Phosphatidyl Choline", "values": [
      {"measurement": "activity as activator of Retinol Dehydrogenase (in words)", "setting": "[3]", "value": "Most preferred as most active activator of"}
    ]},
    {"compound": "Phosphatidyl ethanolamine", "values": [
      {"measurement": "% lnhibition Retinal Reductase", "setting": "[2]", "value": 37, "unit": "%"}
    ]}
  ]
}
